According to the supplement of paper PMC11451515:

Assays:
Conditions in all cases: 48 h
P12-Ichikawa [1] = test: AUC of viability dose-response curve (% viability x log10 dose units); higher = less sensitive
In short: (§1)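 Area under the curve was integrated by trapezoidal rule from a log-logistic fit of normalised viability, with curves exceeding full viability scaled and quality-control failures removed. The fit had four parameters over log10 doses. Viability came from CellTiter-Glo One luminescence, normalised per plate to DMSO and cell-free wells, after leukemia cells adapted to each medium (500 or 1000 cells/well, 1536-well plates) were exposed to library compounds in DMSO for 48 h at 37°C. The 11 threefold doses ran from 47 μM to 0.79 nM.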

SEM cells [2] = test: as above
In short: as §1

NOMO1 [3] = test: as above
In short: as §1

P12-Ichikawa [4] = test: cell viability relative to DMSO control; higher = less cytotoxic
In short: (§2)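 In 1536-well plates, 5 μl of leukemia cells were seeded per well: 500 cells/well for NOMO1 or SEM and 1000 cells/well for P12-Ichikawa. Each line had first been adapted for at least four passages in each medium. Library compounds in DMSO were pin-dosed at 11 threefold concentrations between 47 μM and 0.79 nM, and CellTiter-Glo One luminescence was read after 48 h at 37°C. Viability is a per-plate percentage relative to DMSO wells, with cell-free wells as background.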

SEM cells [5] = test: as above
In short: as §2

NOMO1 [6] = test: as above
In short: as §2

O=C(Nc1nnc(-c2ccco2)o1)c1cc(-c2ccccc2)nc2ccccc12
AUC of viability dose-response curve
Conditions | NOMO1 [3] | P12-Ichikawa [1] | SEM cells [2]
HPLM + 10% dialyzed FBS | 393 | 379 | 442
RPMI 5 mM glucose + 10% FBS | 455 | 448 | 348
RPMI 5 mM glucose + 10% dialyzed FBS | 451 | 451 | 443

cell viability [%]
Conditions | NOMO1 [6] | P12-Ichikawa [4] | SEM cells [5]
HPLM + 10% dialyzed FBS, 0.000781 µM | 92.3 | 113 | 87.5
HPLM + 10% dialyzed FBS, 0.00234 µM | 103 | 99.3 | 96.5
HPLM + 10% dialyzed FBS, 0.00702 µM | 117 | 103 | 96.3
HPLM + 10% dialyzed FBS, 0.0211 µM | 124 | 116 | 95
HPLM + 10% dialyzed FBS, 0.0632 µM | 118 | 113 | 91.5
HPLM + 10% dialyzed FBS, 0.19 µM | 120 | 110 | 110
HPLM + 10% dialyzed FBS, 0.569 µM | 114 | 116 | 95.3
HPLM + 10% dialyzed FBS, 1.71 µM | 114 | 109 | 106
HPLM + 10% dialyzed FBS, 5.12 µM | 65.5 | 44.4 | 103
HPLM + 10% dialyzed FBS, 15.4 µM | 18.7 | 3.09 | 93
HPLM + 10% dialyzed FBS, 46.1 µM | 6.68 | 3.16 | 4.54
RPMI 5 mM glucose + 10% FBS, 0.000781 µM | 107 | 104 | 92.6
RPMI 5 mM glucose + 10% FBS, 0.00234 µM | 101 | 105 | 75.1
RPMI 5 mM glucose + 10% FBS, 0.00702 µM | 99.9 | 115 | 95.6
RPMI 5 mM glucose + 10% FBS, 0.0211 µM | 105 | 110 | 79.7
RPMI 5 mM glucose + 10% FBS, 0.0632 µM | 100 | 116 | 104
RPMI 5 mM glucose + 10% FBS, 0.19 µM | 101 | 113 | 95.6
RPMI 5 mM glucose + 10% FBS, 0.569 µM | 93 | 118 | 98.2
RPMI 5 mM glucose + 10% FBS, 1.71 µM | 111 | 119 | 85
RPMI 5 mM glucose + 10% FBS, 5.12 µM | 98.3 | 117 | 41.3
RPMI 5 mM glucose + 10% FBS, 15.4 µM | 99.3 | 97.8 | 5.04
RPMI 5 mM glucose + 10% FBS, 46.1 µM | 13.7 | 6.52 | 2.95
RPMI 5 mM glucose + 10% dialyzed FBS, 0.000781 µM | 102 | 95.7 | 91.8
RPMI 5 mM glucose + 10% dialyzed FBS, 0.00234 µM | 89.3 | 99.8 | 94.2
RPMI 5 mM glucose + 10% dialyzed FBS, 0.00702 µM | 107 | 99.2 | 104
RPMI 5 mM glucose + 10% dialyzed FBS, 0.0211 µM | 96.2 | 94.2 | 101
RPMI 5 mM glucose + 10% dialyzed FBS, 0.0632 µM | 103 | 108 | 107
RPMI 5 mM glucose + 10% dialyzed FBS, 0.19 µM | 112 | 105 | 109
RPMI 5 mM glucose + 10% dialyzed FBS, 0.569 µM | 93.4 | 100 | 99
RPMI 5 mM glucose + 10% dialyzed FBS, 1.71 µM | 117 | 105 | 95.3
RPMI 5 mM glucose + 10% dialyzed FBS, 5.12 µM | 118 | 102 | 106
RPMI 5 mM glucose + 10% dialyzed FBS, 15.4 µM | 106 | 93.2 | 77.8
RPMI 5 mM glucose + 10% dialyzed FBS, 46.1 µM | 13.5 | 7.67 | 3.49

CCN(CC)CCOc1ccc(Cc2ccccc2)cc1
AUC of viability dose-response curve
Conditions | NOMO1 [3] | P12-Ichikawa [1] | SEM cells [2]
HPLM + 10% dialyzed FBS | 403 | 417 | 442
RPMI 5 mM glucose + 10% FBS | 431 | 446 | 380
RPMI 5 mM glucose + 10% dialyzed FBS | 464 | 409 | 409

cell viability [%]
Conditions | NOMO1 [6] | P12-Ichikawa [4] | SEM cells [5]
HPLM + 10% dialyzed FBS, 0.000781 µM | 97.9 | 103 | 102
HPLM + 10% dialyzed FBS, 0.00234 µM | 102 | 104 | 101
HPLM + 10% dialyzed FBS, 0.00702 µM | 113 | 102 | 110
HPLM + 10% dialyzed FBS, 0.0211 µM | 92.9 | 101 | 88.4
HPLM + 10% dialyzed FBS, 0.0632 µM | 110 | 98.9 | 92.2
HPLM + 10% dialyzed FBS, 0.19 µM | 106 | 103 | 102
HPLM + 10% dialyzed FBS, 0.569 µM | 113 | 105 | 104
HPLM + 10% dialyzed FBS, 1.71 µM | 102 | 95.4 | 89.4
HPLM + 10% dialyzed FBS, 5.12 µM | 74.1 | 85.2 | 87.1
HPLM + 10% dialyzed FBS, 15.4 µM | 21.2 | 29.8 | 75.9
HPLM + 10% dialyzed FBS, 46.1 µM | 14.2 | 22.8 | 46.6
RPMI 5 mM glucose + 10% FBS, 0.000781 µM | 92.2 | 101 | 107
RPMI 5 mM glucose + 10% FBS, 0.00234 µM | 92.2 | 95.9 | 98
RPMI 5 mM glucose + 10% FBS, 0.00702 µM | 94.2 | 95.1 | 98.9
RPMI 5 mM glucose + 10% FBS, 0.0211 µM | 106 | 95.9 | 102
RPMI 5 mM glucose + 10% FBS, 0.0632 µM | 102 | 99.4 | 95.5
RPMI 5 mM glucose + 10% FBS, 0.19 µM | 91.8 | 98.5 | 102
RPMI 5 mM glucose + 10% FBS, 0.569 µM | 101 | 102 | 91.9
RPMI 5 mM glucose + 10% FBS, 1.71 µM | 91.6 | 93 | 88.4
RPMI 5 mM glucose + 10% FBS, 5.12 µM | 83.4 | 85.7 | 44.9
RPMI 5 mM glucose + 10% FBS, 15.4 µM | 68.3 | 77.6 | 11.8
RPMI 5 mM glucose + 10% FBS, 46.1 µM | 57 | 79.3 | 9.79
RPMI 5 mM glucose + 10% dialyzed FBS, 0.000781 µM | 99.1 | 87.1 | 108
RPMI 5 mM glucose + 10% dialyzed FBS, 0.00234 µM | 96 | 96 | 102
RPMI 5 mM glucose + 10% dialyzed FBS, 0.00702 µM | 108 | 86.5 | 101
RPMI 5 mM glucose + 10% dialyzed FBS, 0.0211 µM | 108 | 97.8 | 113
RPMI 5 mM glucose + 10% dialyzed FBS, 0.0632 µM | 97.8 | 93.4 | 93.8
RPMI 5 mM glucose + 10% dialyzed FBS, 0.19 µM | 108 | 89.8 | 110
RPMI 5 mM glucose + 10% dialyzed FBS, 0.569 µM | 97.9 | 99.5 | 104
RPMI 5 mM glucose + 10% dialyzed FBS, 1.71 µM | 108 | 93.1 | 101
RPMI 5 mM glucose + 10% dialyzed FBS, 5.12 µM | 97.5 | 92 | 85.1
RPMI 5 mM glucose + 10% dialyzed FBS, 15.4 µM | 91.4 | 52 | 19.4
RPMI 5 mM glucose + 10% dialyzed FBS, 46.1 µM | 78.3 | 34.4 | 16.9

CCOC(=O)C(C#N)C\1C2=CC(=CC=C2O\C(=C1C(=O)OCC)N)Br (centres undefined)
AUC of viability dose-response curve
Conditions | NOMO1 [3] | P12-Ichikawa [1] | SEM cells [2]
HPLM + 10% dialyzed FBS | 445 | 467 | 450
RPMI 5 mM glucose + 10% FBS | 449 | 452 | 462
RPMI 5 mM glucose + 10% dialyzed FBS | 447 | 463 | 421

cell viability [%]
Conditions | NOMO1 [6] | P12-Ichikawa [4] | SEM cells [5]
HPLM + 10% dialyzed FBS, 0.000781 µM | 113 | 100 | 93.4
HPLM + 10% dialyzed FBS, 0.00234 µM | 120 | 103 | 102
HPLM + 10% dialyzed FBS, 0.00702 µM | 110 | 108 | 117
HPLM + 10% dialyzed FBS, 0.0211 µM | 99.9 | 92.8 | 49.8
HPLM + 10% dialyzed FBS, 0.0632 µM | 114 | 103 | 113
HPLM + 10% dialyzed FBS, 0.19 µM | 104 | 103 | 99.9
HPLM + 10% dialyzed FBS, 0.569 µM | 96.1 | 99.1 | 99.5
HPLM + 10% dialyzed FBS, 1.71 µM | 107 | 104 | 105
HPLM + 10% dialyzed FBS, 5.12 µM | 117 | 105 | 95.1
HPLM + 10% dialyzed FBS, 15.4 µM | 92.4 | 94.6 | 86.1
HPLM + 10% dialyzed FBS, 46.1 µM | 97.5 | 75.7 | 63.8
RPMI 5 mM glucose + 10% FBS, 0.000781 µM | 97.8 | 104 | 113
RPMI 5 mM glucose + 10% FBS, 0.00234 µM | 90.3 | 102 | 116
RPMI 5 mM glucose + 10% FBS, 0.00702 µM | 97.5 | 106 | 114
RPMI 5 mM glucose + 10% FBS, 0.0211 µM | 87.9 | 88.5 | 44.5
RPMI 5 mM glucose + 10% FBS, 0.0632 µM | 99.3 | 106 | 116
RPMI 5 mM glucose + 10% FBS, 0.19 µM | 102 | 117 | 117
RPMI 5 mM glucose + 10% FBS, 0.569 µM | 107 | 103 | 113
RPMI 5 mM glucose + 10% FBS, 1.71 µM | 91.5 | 102 | 113
RPMI 5 mM glucose + 10% FBS, 5.12 µM | 94.5 | 97.9 | 101
RPMI 5 mM glucose + 10% FBS, 15.4 µM | 83.7 | 90 | 98
RPMI 5 mM glucose + 10% FBS, 46.1 µM | 82.4 | 89.4 | 57.6
RPMI 5 mM glucose + 10% dialyzed FBS, 0.000781 µM | 99.1 | 101 | 84.8
RPMI 5 mM glucose + 10% dialyzed FBS, 0.00234 µM | 95.1 | 99.1 | 99.1
RPMI 5 mM glucose + 10% dialyzed FBS, 0.00702 µM | 99 | 105 | 103
RPMI 5 mM glucose + 10% dialyzed FBS, 0.0211 µM | 95.7 | 83.9 | 49.8
RPMI 5 mM glucose + 10% dialyzed FBS, 0.0632 µM | 104 | 94.9 | 108
RPMI 5 mM glucose + 10% dialyzed FBS, 0.19 µM | 83.8 | 105 | 99.1
RPMI 5 mM glucose + 10% dialyzed FBS, 0.569 µM | 94.4 | 102 | 83.6
RPMI 5 mM glucose + 10% dialyzed FBS, 1.71 µM | 94.7 | 92.7 | 105
RPMI 5 mM glucose + 10% dialyzed FBS, 5.12 µM | 96.7 | 101 | 87.2
RPMI 5 mM glucose + 10% dialyzed FBS, 15.4 µM | 80.3 | 95 | 82.3
RPMI 5 mM glucose + 10% dialyzed FBS, 46.1 µM | 82.6 | 80 | 55.2
